Source: article PMC5693616 (Bioorganic & medicinal chemistry letters, 2017)
Like-named read-outs stand apart in the source and are kept apart here.

Columns and labels:
[1] = test system: EPAC2; details: read-out: EPAC2 inhibitory activity IC50; cited from earlier work
[2] = test system: EPAC2; details: read-out: inhibition of cAMP-mediated EPAC2 GEF activity IC50; cited from earlier work
[3] = molecular target: T1, EPAC1 (Homo sapiens, UniProt O95398); details: at 100 μM; cited from earlier work
T1 sequence (O95398 1-923): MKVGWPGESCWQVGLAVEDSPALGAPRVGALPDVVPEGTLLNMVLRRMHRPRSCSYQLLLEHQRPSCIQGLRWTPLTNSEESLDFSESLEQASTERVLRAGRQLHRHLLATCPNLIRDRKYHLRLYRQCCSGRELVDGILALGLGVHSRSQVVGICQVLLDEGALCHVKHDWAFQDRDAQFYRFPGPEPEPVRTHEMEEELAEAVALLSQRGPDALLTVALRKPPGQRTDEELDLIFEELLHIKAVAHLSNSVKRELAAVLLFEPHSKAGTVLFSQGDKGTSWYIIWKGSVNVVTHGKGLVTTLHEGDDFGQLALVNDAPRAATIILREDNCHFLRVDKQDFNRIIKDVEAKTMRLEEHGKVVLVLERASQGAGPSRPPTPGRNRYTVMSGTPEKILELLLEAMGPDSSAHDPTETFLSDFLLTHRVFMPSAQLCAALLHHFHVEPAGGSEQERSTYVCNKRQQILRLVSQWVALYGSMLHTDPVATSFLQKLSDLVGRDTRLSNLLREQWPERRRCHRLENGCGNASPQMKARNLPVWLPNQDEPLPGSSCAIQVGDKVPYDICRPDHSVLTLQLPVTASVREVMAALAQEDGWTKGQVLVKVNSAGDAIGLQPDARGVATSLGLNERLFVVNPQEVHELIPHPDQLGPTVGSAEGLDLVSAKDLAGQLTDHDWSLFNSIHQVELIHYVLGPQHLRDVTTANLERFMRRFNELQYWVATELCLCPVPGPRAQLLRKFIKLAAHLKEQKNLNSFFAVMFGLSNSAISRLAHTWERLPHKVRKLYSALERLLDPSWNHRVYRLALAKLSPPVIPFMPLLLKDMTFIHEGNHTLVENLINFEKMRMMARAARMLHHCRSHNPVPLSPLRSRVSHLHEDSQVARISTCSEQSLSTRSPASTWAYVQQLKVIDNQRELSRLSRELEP

[4] = molecular target: T1, EPAC1; type: biochemical; details: for EPAC inhibitory activities (in words): Rap1b-bGDP exchange assay

## Cc1cc(C)c(Nc2ccc(Cl)c(C(F)(F)F)c2)c(C)c1 [Compound 3]
[1]
  IC50: 400 nM
[2]
  IC50: 1000 nM
[3]
  inhibition against EPAC1: no significant inhibition

## CC(C)(C)c1ccc(C(=O)/C(C#N)=N/Nc2cc(Cl)cc(Cl)c2)cc1 [Compound 10, (E)-2-(4-(tert-Butyl)phenyl)-N-(3,5-dichlorophenyl)-2-oxoacetohydrazonoyl cyanide]
[4]; ratio of IC50 values vs compound 6
  improvement on EPAC1 inhibitory activity compared to compound 6: 2.5 fold

## COc1ccc(C(=O)/C(C#N)=N/Nc2cc(Cl)cc(Cl)c2)cc1OC [Compound 27]
[4]
  EPAC inhibitory activities (in words): complete loss of EPAC inhibitory activities

## N#C/C(=N\Nc1cc(Cl)cc(Cl)c1)C(=O)c1ccc(-c2ccccc2)cc1 [Compound 26]
[4]
  EPAC inhibitory activities (in words): complete loss of EPAC inhibitory activities
